Patent US4088755A, “Medicament for remedying schizophrenia” (priority 1975, dated 1978)

Key:
[1] = test system: patients with schizophrenia; assay: Clinical data: case reports (Cases 1 to 6) of schizophrenic patients on neuroleptics, L-Dopa and TRH; assay type: in vivo, human
[2] = test system: psychotic patients / patients with schizophrenia; assay type: in vivo, human
Text: L-Pyroglutamyl-L-histidyl-L-prolinamide (thyrotropin-releasing hormone; hereinafter referred to as TRH) is a hypothalamic hormone which can be synthesized chemically and has been used as a diagnostic agent or as an antidepressant. […] It is known, however, that, although the onset of the effect of TRH on psychotic patients is very rapid, the duration of its effects is rather short. Thus, TRH alone cannot be a practical remedy for psychotic patients.
On the other hand, according to the present invention, a deterioration of the patients considered to be caused by TRH in the combined use is negligible and, therefore, determination of the dose is very easy.
Furthermore, although the effect of TRH on pyschotic patients is known to be transient, t therapeutic effects in accordance with the present invention last long even after withdrawal of TRH or its physiologically acceptable salts, alone or together with neuroleptics, which are administered to patients in combination. In this way, long lasting therapeutic effects, as well as the rapid onset of the effects are another excellent characteristic of this invention.

[3] = test system: patients with schizophrenia; assay: Clinical data: case reports (Cases 1 to 6) of schizophrenic patients on neuroleptics, L-Dopa and TRH; assay type: in vivo, human; remark: listed apart in the source
Experimental: The following clinical data as well as Examples are only for illustrative purposes and are not at all intended to limit or to restrict the scope of the invention.
On April 14, they came back to their home town and, on the following day, was admitted to hospital.
On July 10, TRH tartrate monohydrate 4 mg. (2.73 mg. in terms of free TRH) per day (2 mg. each in the morning and night) began to be administered orally in combination with thioridazine, 50 mg. per day, and trihexyphenydyl 6 mg. per day. […] On July 31, the administration of TRH was stopped.
In February 1961, the patient was admitted for the first time to Y hospital in a state of catatonic stupor. After receiving electroshock therapy and chlorpromazine, they were discharged from the hospital on April 19 of the same year. On May 26, 1966 they were again admitted to the same hospital this time in a state of catatonic excitement. […] Beginning on April 3, 1971, thioridazine, 300 mg. per day, and L-Dopa, 400 mg. daily, were added to the therapeutic regime. […] From the 9th day on, the dosage of L-Dopa was increased to 600 mg. daily. […] At the 19th week, the dosage of L-Dopa was reduced to 400 mg. and the drug was discontinued that week-end.
Hospital therapy was started with chlorpromazine, 400 mg. per day, and spiperone, 1 mg. per day. […] Consequently, the dosage of chlorpromazine was raised to 500 mg. per day. […] Beginning on August 9, penfluridol, 20 to 40 mg. twice weekly, was added to the preceding regimen of chlorpromazine 500 mg. daily. On June 26, 1973, the dosage of chlorpromazine was reduced to 200 mg. per day. Shortly thereafter, L-Dopa, 100 mg. daily, was added to the regimen from July 5 on. The dosage of L-Dopa was then increased gradually up to 600 mg. per day and finally discontinued on August 30.
On July 2, 1974, they were started on clocapramine, 75 mg. daily, to which TRH tartrate monohydrate, 4 mg. (2.73 mg. in terms of free TRH) daily, was orally added from July 29 on.

[4] = test system: psychotic patients / patients with schizophrenia; conditions: cited from earlier work

O=C(CCCN1CCC(O)(c2ccc(Cl)cc2)CC1)c1ccc(F)cc1 [Haloperidol]
Clinical outcome, Case 4, haloperidol ([1]; 4 mg daily initially, increased up to 100 mg): failed to elicit any appreciable symptomatic response

N[C@@H](Cc1ccc(O)c(O)c1)C(=O)O [L-Dopa, L-3,4-dihydroxyphenylalanine]
Clinical outcome, Case 3, L-Dopa with thioridazine ([1]; L-Dopa 300 mg daily with thioridazine 200 mg daily): their spontaneity increased to an extent greater than that achieved before | Clinical outcome, Case 2, L-Dopa therapy (1973) ([1]; L-Dopa 100 up to 600 mg per day added to chlorpromazine 200 mg per day and penfluridol, autism and abulia persisted): His general clinical picture improved to a considerable extent | Time condition remained the same after withdrawal of L-Dopa, Case 3 ([1]; after about 5 months of usage with thioridazine): about 4 months | Clinical outcome, Case 3, L-Dopa with chlorpromazine ([1]; person, L-Dopa 400 mg with chlorpromazine 300 mg per day, end of 3rd week): an appreciable improvement in their facial expression | Side effects, Case 3, L-Dopa 1000 mg daily ([1]; with chlorpromazine 300 mg per day): they seemed irritated to some extent and complained of sleeping trouble | Side effects, Case 3, L-Dopa 1200 mg ([1]; with chlorpromazine 300 mg per day, led to discontinuation): appearance of auditory hallucination | Side-effects of L-Dopa in combined use ([2]; human, in vivo): an excessive does of L-Dopa results in the production of side-effects in the patients | Effect of L-Dopa in small doses with conventionally used neuroleptics ([2]; schizophrenia, observed by the present inventors): marked improvement of the overall clinical picture in schizophrenia | Clinical outcome, Case 2, L-Dopa with thioridazine (1971) ([3]; person, L-Dopa 400-600 mg daily with thioridazine 300 to 100 mg per day, 19th week): had no morbid experience and appeared to have a clear insight

NC(=O)[C@@H]1CCCN1C(=O)[C@H](Cc1cnc[nH]1)NC(=O)[C@@H]1CCC(=O)N1 [TRH, L-Pyroglutamyl-L-histidyl-L-prolinamide]
Persistence of remission after withdrawal of TRH, Case 1 ([1]; TRH stopped July 31, other drugs continued): His state of remission has been maintained until now | Persistence of improvement after withdrawal of TRH, Case 5 ([1]; TRH stopped on 15th day): the improvement has continued even after withdrawal of TRH | Clinical outcome, Case 3, TRH with thioridazine ([1]; TRH tartrate monohydrate 8 mg daily (5.46 mg free TRH) orally with thioridazine 200 mg daily for two weeks, from 4th day): Their participation in work and recreational activities became more positive and their action became more agile than when they were placed on L-Dopa | Onset of subjective effect, Case 6 ([1]; i.v. TRH, patient felt light in the head and free from depressed feeling): One hour after the first injection | Persistence of effect of TRH therapy after discontinuation, Case 3 ([1]; on thioridazine alone): two | Clinical outcome, Case 6, intravenous TRH with neuroleptics ([1]; person, 730 μg TRH tartrate monohydrate (500 μg free TRH)/day i.v., 5 injections, with perphenazine 12 mg/day, diazepam 10 mg/day, vegetamim B 1 tablet/day): Remarkable improvement in the symptoms was recognized subjectively as well as objectively | Deterioration of the patients considered to be caused by TRH in the combined use ([2]; human, in vivo): negligible | Time remission maintained after withdrawal of TRH, Case 2 ([3]; on clocapramine 75 mg daily alone, remission maintained most of the time): 4 months | Effect of TRH alone in patients with schizophrenia ([4]; The Lancet, July 7, 1973, pages 43 and 44): produce emotional warmth, lucidity of though and accessibility of psychotherapy | Duration of effects of TRH alone ([4]; psychotic patients): rather short | Onset of effect of TRH alone ([4]; psychotic patients): very rapid

CN(C)CCCN1c2ccccc2Sc2ccc(Cl)cc21 [chlorpromazine, Chlorpromazine]
Clinical outcome, Case 4, oral chlorpromazine ([1]; person, initial 100 mg daily, gradually increasing dose): without result | Clinical outcome, Case 2, chlorpromazine with spiperone ([3]; chlorpromazine 400 mg per day and spiperone 1 mg per day, other symptoms virtually unaffected): their negativism and psychomotor excitement seemed to disappear almost completely
